Data as given in publication PMC11882969 (Nature Communications, 2025).
Where “and” joins values, the source holds several entries; their conditions need not be identical. Equal values may be shown once. Read-outs that look alike come from different tables or passages of the source.

Molecular target: hCB2 (Homo sapiens, UniProt P34972)
Experiment: bioSensAll ebBRET signaling profiling, hCB2
Assay type: cell-based
Parameters: host or cells: HEK293SL cells, transient PEI transfection
Conditions: for G15 hCB2 / Gq hCB2 / Gs hCB2 / G13 hCB2: raw signal; for EC50: read-out: EC50 [95% CI]; for Emax: normalized to CP-55,940

Sequence of hCB2 (P34972 whole entry): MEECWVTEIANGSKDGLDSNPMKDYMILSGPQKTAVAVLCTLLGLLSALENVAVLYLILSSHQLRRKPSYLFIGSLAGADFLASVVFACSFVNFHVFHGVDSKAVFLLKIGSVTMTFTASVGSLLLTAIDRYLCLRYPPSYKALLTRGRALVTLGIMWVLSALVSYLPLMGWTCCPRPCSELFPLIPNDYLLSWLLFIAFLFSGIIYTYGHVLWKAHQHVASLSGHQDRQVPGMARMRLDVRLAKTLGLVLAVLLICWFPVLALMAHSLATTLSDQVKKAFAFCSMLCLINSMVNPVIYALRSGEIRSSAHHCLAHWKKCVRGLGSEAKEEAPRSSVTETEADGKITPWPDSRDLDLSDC

COC(=O)[C@@](C)(NC(=O)c1cc(C)n(-c2cccc(C(F)(F)F)c2)n1)c1cccs1 [‘1350]
G15 hCB2 (Log [Compound] (M) -5.05788): 909
Gq hCB2 (Log [Compound] (M) -5.05788): 1907
Gs hCB2 (Log [Compound] (M) -5.05788): 9135
G13 hCB2 (Log [Compound] (M) -5.47381): 332
G15 hCB2 (Log [Compound] (M) -5.47381): 938
Gq hCB2 (Log [Compound] (M) -5.47381): 1876
Gs hCB2 (Log [Compound] (M) -5.47381): 8949
G13 hCB2 (Log [Compound] (M) -5.89285): 339
G15 hCB2 (Log [Compound] (M) -5.89285): 882
Gq hCB2 (Log [Compound] (M) -5.89285): 1888
Gs hCB2 (Log [Compound] (M) -5.89285): 8825
G13 hCB2 (Log [Compound] (M) -6.31878): 340
G15 hCB2 (Log [Compound] (M) -6.31878): 867
Gq hCB2 (Log [Compound] (M) -6.31878): 1817
Gs hCB2 (Log [Compound] (M) -6.31878): 8693
G13 hCB2 (Log [Compound] (M) -6.72585): 337
G15 hCB2 (Log [Compound] (M) -6.72585): 945
Gq hCB2 (Log [Compound] (M) -6.72585): 1883
Gs hCB2 (Log [Compound] (M) -6.72585): 8781
G13 hCB2 (Log [Compound] (M) -7.14267): 379
G15 hCB2 (Log [Compound] (M) -7.14267): 858
Gq hCB2 (Log [Compound] (M) -7.14267): 1709
Gs hCB2 (Log [Compound] (M) -7.14267): 8728
G13 hCB2 (Log [Compound] (M) -7.55284): 353
G15 hCB2 (Log [Compound] (M) -7.55284): 904
Gq hCB2 (Log [Compound] (M) -7.55284): 1791
Gs hCB2 (Log [Compound] (M) -7.55284): 8935
G13 hCB2 (Log [Compound] (M) -8): 375
G15 hCB2 (Log [Compound] (M) -8): 912
Gq hCB2 (Log [Compound] (M) -8): 1812
Gs hCB2 (Log [Compound] (M) -8): 8658
G13 hCB2 (Log [Compound] (M) -8.22186): 364
G15 hCB2 (Log [Compound] (M) -8.22186): 883
Gq hCB2 (Log [Compound] (M) -8.22186): 1883
Gs hCB2 (Log [Compound] (M) -8.22186): 9640
G13 hCB2 (Log [Compound] (M) -8.39794): 287
G15 hCB2 (Log [Compound] (M) -8.39794): 753
Gq hCB2 (Log [Compound] (M) -8.39794): 1844
Gs hCB2 (Log [Compound] (M) -8.39794): 8340
G13 hCB2 (Log [Compound] (M) -8.68787): 322
G15 hCB2 (Log [Compound] (M) -8.68787): 851
Gq hCB2 (Log [Compound] (M) -8.68787): 1882
Gs hCB2 (Log [Compound] (M) -8.68787): 8911
G13 hCB2 (Log [Compound] (M) -9.15521): 356
G15 hCB2 (Log [Compound] (M) -9.15521): 841
Gq hCB2 (Log [Compound] (M) -9.15521): 1859
Gs hCB2 (Log [Compound] (M) -9.15521): 8948
G13 hCB2 (Log [Compound] (M) -9.61989): 303
G15 hCB2 (Log [Compound] (M) -9.61989): 888
Gq hCB2 (Log [Compound] (M) -9.61989): 1906
Gs hCB2 (Log [Compound] (M) -9.61989): 8984
G13 hCB2 (Log [Compound] (M) -10.0969): 348
G15 hCB2 (Log [Compound] (M) -10.0969): 956
Gq hCB2 (Log [Compound] (M) -10.0969): 1853
Gs hCB2 (Log [Compound] (M) -10.0969): 9066
G13 hCB2 (Log [Compound] (M) -10.5529): 333
G15 hCB2 (Log [Compound] (M) -10.5529): 902
Gq hCB2 (Log [Compound] (M) -10.5529): 1805
Gs hCB2 (Log [Compound] (M) -10.5529): 9374
G13 hCB2 (Log [Compound] (M) -11.0177): 340
G15 hCB2 (Log [Compound] (M) -11.0177): 939
Gq hCB2 (Log [Compound] (M) -11.0177): 1690
Gs hCB2 (Log [Compound] (M) -11.0177): 9100
G13 hCB2 (Log [Compound] (M) -11.4949): 323
G15 hCB2 (Log [Compound] (M) -11.4949): 868
Gq hCB2 (Log [Compound] (M) -11.4949): 1776
Gs hCB2 (Log [Compound] (M) -11.4949): 8459
G13 hCB2 (Log [Compound] (M) -11.9208): 343
G15 hCB2 (Log [Compound] (M) -11.9208): 862
Gq hCB2 (Log [Compound] (M) -11.9208): 1776
Gs hCB2 (Log [Compound] (M) -11.9208): 9036
G13 hCB2 (Log [Compound] (M) -12.3979): 327
G15 hCB2 (Log [Compound] (M) -12.3979): 871
Gq hCB2 (Log [Compound] (M) -12.3979): 1850
Gs hCB2 (Log [Compound] (M) -12.3979): 8912
G13 hCB2 (Log [Compound] (M) -12.8861): 293
G15 hCB2 (Log [Compound] (M) -12.8861): 841
Gq hCB2 (Log [Compound] (M) -12.8861): 1768
Gs hCB2 (Log [Compound] (M) -12.8861): 8754
G13 hCB2 (Log [Compound] (M) -13): 352 and 368
G15 hCB2 (Log [Compound] (M) -13): 772 and 852
Gq hCB2 (Log [Compound] (M) -13): 1940 and 1790
Gs hCB2 (Log [Compound] (M) -13): 8891 and 8980
EC50 (hCB2 Barr2 + GRK2): 4.2 nM
EC50 (hCB2 Gi2): 1.6 nM
EC50 (hCB2 GoB): 2.6 nM
EC50 (hCB2 Gz): 2.6 nM
Emax (read-out: Emax [95% CI], hCB2 Barr2 + GRK2): 30%
Emax (read-out: Emax [95% CI], hCB2 Gi1): 74%
Emax (read-out: Emax [95% CI], hCB2 Gi2): 61%
Emax (read-out: Emax [95% CI], hCB2 GoB): 59%
Emax (read-out: Emax [95% CI], hCB2 Gz): 52%
